Measured values taken from patent US4264577A, “Contraceptive methods and compositions” (Eli Lilly and Company, priority 1980, dated 1981).

Tests used:
[1] = Release from coated medicated dimethylpolysiloxane rods into water; type: physicochemical
Description: Dimethylpolysiloxane rubber rods (3 mm. diameter) containing 25% (W/W) sodium n-tetradecyl sulfate are prepared by the procedure described in Example 3, Method B. The rods are cut into one-inch pieces. A coating solution is prepared by dissolving 12.5 grams of dimethylpolysiloxane elastomer (DOW-Corning MDX-4-4210) in 37.5 ml of methylene chloride and then dissolving 1.88 grams of curing agent (Dow-Corning MDX-4-4210) therein. A straight pin is placed in the end of each one inch piece of rod. The piece of rod, held by the pin, is dipped into the above solution, and the rod is withdrawn from the solution and drained. The piece of rod is rotated as methylene chloride evaporates. The coated rods are placed in an oven at 120° C. for 10 minutes to cure the coating. The coated rods are then placed in a vacuum oven at 40° C. overnight to remove all methylene chloride. A second and third coat can be applied by the above method.
The release of sodium n-tetradecyl sulfate from the coated medicated rods, prepared as above-described, into water is shown in Table 10, below:
^(a) Weight of rods: 500 mg.; amount of water added: 10 ml.;
temperature: 37° C.; active compound determined by methylene blue

[2] = test system: Dutch belted virgin rabbits; assay: Antifertility effect by intrauterine administration (medicated rubber rod in uterine horn); type: in vivo, rabbit; details: 40-mg rod, 10% W/W, in right uterine horn; 8 uterine horns; 14 days after breeding
Description: Dutch belted virgin rabbits, each weighing 3-4 pounds, are randomly selected and anesthetized with sodium pentobarbital ([…].) administered by IV drip. The uterus of each animal is exposed and a 40-mg. sample in the shape of a rod (3 mm. in diameter) of dimethylpolysiloxane rubber (as prepared in Example 3, Method A) containing 10% W/W of sodium tetradecyl sulfate is sutured into the right uterine horn at a random location in between the cervix and the uterotubal junction. The left horn is left untreated to serve as control. The rubber rod is placed into the uterine horn by passing a curved needle through it and through the uterine wall pulling the rod into the uterine lumen. The entry is closed by suturing. Animals (blank) are similarly treated using unmedicated dimethylpolysiloxane rubber to serve as a second group of controls. The animals are given 300,000 units of Duracillin®) per day (in four doses) and are allowed to recover for 14 days. Each animal is bred to a male of proven fertility and is immediately given a dose (IV) of appropoximately 100 units of human chorionic gonadotropin (HCG) to facilitate ovulation. Fourteen days after breeding, the animal are sacrificed by cervical dislocation and the uterine horns are examined for implanted embryos. The number of embryos per uterine horn are recorded. […]

[3] = Drug release rate in vitro from dimethylpolysiloxane rubber, Method A (calcium-free Ringer's, assayed by acrosin inhibition); type: physicochemical
Description: An appropriate sample of a dimethylpolysiloxane rubber compound in which is incorporated the test compound is placed in a suitable amount of calcium-free Ringers solution, and the sample and solution are incubated together at 37° C. for a period of time (e.g. 24 hours). The solution is removed and assayed for acrosin inhibition (expressed as units per milligram) using the technique described in Example 1. The equivalent amount of test compound in the removed solution is calculated from standard inhibition curves in which acrosin inhibition is plotted against concentration of the test compound. The calculated result are expressed as micrograms of test compound released per day.
The above test may be repeated for an extended period of time, for example, for 1 day to 360 days, or more, by adding fresh calcium-free Ringer's solution after each removal of the solution for assay.
Samples of a dimethylpolysiloxane rubber composition containing 10% W/W of sodium n-tetradecyl sulfate (prepared by Example 3, Method A) were tested as above described for 14 days. The sample weight was 14 mg. and the amount of added solution was 1 ml. After the 14th day, the release rate from the samples averaged 1-3 micrograms/day.
In another experiment, a dimethylpolysiloxane rubber composition weighing 400 mg. and containing 10% W/W of sodium tetradecyl sulfate (prepared by Example 3, Method A) was studied for a 90-day period.

[4] = test system: mice; details: I.P. (mice); cited from earlier work

CCCCCCCCCCCCCCOS(=O)(=O)[O-].[Na+] [n-tetradecyl, sodium n-tetradecyl sulfate]
Amount of sodium n-tetradecyl sulfate released (mg. per 7 days) ([1]; 1 coat, Days 7, 500 mg rod, 25% W/W, 10 ml water 37° C.): 0 mg. per 7 days | Amount of sodium n-tetradecyl sulfate released (mg. per 7 days) ([1]; 1 coat, Days 14): 0.14 mg. per 7 days | Amount of sodium n-tetradecyl sulfate released (mg. per 7 days) ([1]; 1 coat, Days 21): 77.4 mg. per 7 days | Amount of sodium n-tetradecyl sulfate released (mg. per 7 days) ([1]; 1 coat, Days 28): 414.0 mg. per 7 days | Amount of sodium n-tetradecyl sulfate released (mg. per 7 days) ([1]; 1 coat, Days 35): 128.0 mg. per 7 days | Amount of sodium n-tetradecyl sulfate released (mg. per 7 days) ([1]; 1 coat, Days 42): 586.0 mg. per 7 days | Amount of sodium n-tetradecyl sulfate released (mg. per 7 days) ([1]; 1 coat, Days 49): 370.0 mg. per 7 days | Amount of sodium n-tetradecyl sulfate released (mg. per 7 days) ([1]; 1 coat, Days 56): 524.0 mg. per 7 days | Amount of sodium n-tetradecyl sulfate released (mg. per 7 days) ([1]; 1 coat, Days 63): 571.0 mg. per 7 days | Amount of sodium n-tetradecyl sulfate released (mg. per 7 days) ([1]; 1 coat, Days 70): 524.0 mg. per 7 days | Amount of sodium n-tetradecyl sulfate released (mg. per 7 days) ([1]; 1 coat, Days 77): 471.0 mg. per 7 days | Amount of sodium n-tetradecyl sulfate released (mg. per 7 days) ([1]; 1 coat, Days 84): 386.0 mg. per 7 days | Amount of sodium n-tetradecyl sulfate released (mg. per 7 days) ([1]; 1 coat, Days 91): 330.0 mg. per 7 days | Amount of sodium n-tetradecyl sulfate released (mg. per 7 days) ([1]; 1 coat, Days 98): 349.0 mg. per 7 days | Amount of sodium n-tetradecyl sulfate released (mg. per 7 days) ([1]; 1 coat, Days 105): 240.0 mg. per 7 days | Amount of sodium n-tetradecyl sulfate released (mg. per 7 days) ([1]; 1 coat, Days 112): 329.0 mg. per 7 days | Amount of sodium n-tetradecyl sulfate released (mg. per 7 days) ([1]; 1 coat, Days 119): 286.0 mg. per 7 days | Amount of sodium n-tetradecyl sulfate released (mg. per 7 days) ([1]; 1 coat, Days 126): 430.0 mg. per 7 days | Amount of sodium n-tetradecyl sulfate released (mg. per 7 days) ([1]; 2 coat, Days 7): 0 mg. per 7 days | Amount of sodium n-tetradecyl sulfate released (mg. per 7 days) ([1]; 2 coat, Days 14): 0 mg. per 7 days | Amount of sodium n-tetradecyl sulfate released (mg. per 7 days) ([1]; 2 coat, Days 21): .03 mg. per 7 days | Amount of sodium n-tetradecyl sulfate released (mg. per 7 days) ([1]; 2 coat, Days 28): 628.0 mg. per 7 days | Amount of sodium n-tetradecyl sulfate released (mg. per 7 days) ([1]; 2 coat, Days 35): 124.0 mg. per 7 days | Amount of sodium n-tetradecyl sulfate released (mg. per 7 days) ([1]; 2 coat, Days 42): 96.0 mg. per 7 days | Amount of sodium n-tetradecyl sulfate released (mg. per 7 days) ([1]; 2 coat, Days 49): 186.0 mg. per 7 days | Amount of sodium n-tetradecyl sulfate released (mg. per 7 days) ([1]; 2 coat, Days 56): 135.0 mg. per 7 days | Amount of sodium n-tetradecyl sulfate released (mg. per 7 days) ([1]; 2 coat, Days 63): 183.0 mg. per 7 days | Amount of sodium n-tetradecyl sulfate released (mg. per 7 days) ([1]; 2 coat, Days 70): 174.0 mg. per 7 days | Amount of sodium n-tetradecyl sulfate released (mg. per 7 days) ([1]; 2 coat, Days 77): 229.0 mg. per 7 days | Amount of sodium n-tetradecyl sulfate released (mg. per 7 days) ([1]; 2 coat, Days 84): 170.0 mg. per 7 days | Amount of sodium n-tetradecyl sulfate released (mg. per 7 days) ([1]; 2 coat, Days 91): 200.0 mg. per 7 days | Amount of sodium n-tetradecyl sulfate released (mg. per 7 days) ([1]; 2 coat, Days 98): 190.0 mg. per 7 days | Amount of sodium n-tetradecyl sulfate released (mg. per 7 days) ([1]; 2 coat, Days 105): 224.0 mg. per 7 days | Amount of sodium n-tetradecyl sulfate released (mg. per 7 days) ([1]; 2 coat, Days 112): 121.0 mg. per 7 days | Amount of sodium n-tetradecyl sulfate released (mg. per 7 days) ([1]; 2 coat, Days 119): 100.0 mg. per 7 days | Amount of sodium n-tetradecyl sulfate released (mg. per 7 days) ([1]; 2 coat, Days 126): 92.0 mg. per 7 days | Amount of sodium n-tetradecyl sulfate released (mg. per 7 days) ([1]; 3 coat, Days 7): 0 mg. per 7 days | Amount of sodium n-tetradecyl sulfate released (mg. per 7 days) ([1]; 3 coat, Days 14): .02 mg. per 7 days | Amount of sodium n-tetradecyl sulfate released (mg. per 7 days) ([1]; 3 coat, Days 21): 0 mg. per 7 days | Amount of sodium n-tetradecyl sulfate released (mg. per 7 days) ([1]; 3 coat, Days 28): 10.0 mg. per 7 days | Amount of sodium n-tetradecyl sulfate released (mg. per 7 days) ([1]; 3 coat, Days 35): 142.0 mg. per 7 days | Amount of sodium n-tetradecyl sulfate released (mg. per 7 days) ([1]; 3 coat, Days 42): 0 mg. per 7 days | Amount of sodium n-tetradecyl sulfate released (mg. per 7 days) ([1]; 3 coat, Days 49): 186.0 mg. per 7 days | Amount of sodium n-tetradecyl sulfate released (mg. per 7 days) ([1]; 3 coat, Days 56): 143.0 mg. per 7 days | Amount of sodium n-tetradecyl sulfate released (mg. per 7 days) ([1]; 3 coat, Days 63): 194.0 mg. per 7 days | Amount of sodium n-tetradecyl sulfate released (mg. per 7 days) ([1]; 3 coat, Days 70): 174.0 mg. per 7 days | Amount of sodium n-tetradecyl sulfate released (mg. per 7 days) ([1]; 3 coat, Days 77): 157.0 mg. per 7 days | Amount of sodium n-tetradecyl sulfate released (mg. per 7 days) ([1]; 3 coat, Days 84): 160.0 mg. per 7 days | Amount of sodium n-tetradecyl sulfate released (mg. per 7 days) ([1]; 3 coat, Days 91): 140.0 mg. per 7 days | Amount of sodium n-tetradecyl sulfate released (mg. per 7 days) ([1]; 3 coat, Days 98): 159.0 mg. per 7 days | Amount of sodium n-tetradecyl sulfate released (mg. per 7 days) ([1]; 3 coat, Days 105): 196.0 mg. per 7 days | Amount of sodium n-tetradecyl sulfate released (mg. per 7 days) ([1]; 3 coat, Days 112): 157.0 mg. per 7 days | Amount of sodium n-tetradecyl sulfate released (mg. per 7 days) ([1]; 3 coat, Days 119): 150.0 mg. per 7 days | Amount of sodium n-tetradecyl sulfate released (mg. per 7 days) ([1]; 3 coat, Days 126): 156.0 mg. per 7 days | Embryos Horn (x ± S.D.) [2]: 0 | Total No. of embryos [2]: 0 | release rate from the samples (average) ([3]; 14 mg sample, 10% W/W, 1 ml solution, after the 14th day): 1-3 micrograms/day | mean release rate ([3]; 400 mg composition, 10% W/W, 90-day period): 14 µg/day | Amount of sodium n-tetradecyl sulfate released ([3]; Day 0.08 (2 hr.), 400 mg composition, 10% W/W): 77 µg/day | Amount of sodium n-tetradecyl sulfate released ([3]; Day 0.16 (2 hr.), 400 mg composition, 10% W/W): 75 µg/day | Amount of sodium n-tetradecyl sulfate released ([3]; Day 0.32 (8 hr.), 400 mg composition, 10% W/W): 72 µg/day | Amount of sodium n-tetradecyl sulfate released ([3]; Day 1, 400 mg composition, 10% W/W): 69 µg/day | Amount of sodium n-tetradecyl sulfate released ([3]; Day 2, 400 mg composition, 10% W/W): 50 µg/day | Amount of sodium n-tetradecyl sulfate released ([3]; Day 5, 400 mg composition, 10% W/W): 15 µg/day | Amount of sodium n-tetradecyl sulfate released ([3]; Day 7, 400 mg composition, 10% W/W): 37.5 µg/day | Amount of sodium n-tetradecyl sulfate released ([3]; Day 9, 400 mg composition, 10% W/W): 50.0 µg/day | Amount of sodium n-tetradecyl sulfate released ([3]; Day 12, 400 mg composition, 10% W/W): 13 µg/day | Amount of sodium n-tetradecyl sulfate released ([3]; Day 13, 400 mg composition, 10% W/W): 0 µg/day | Amount of sodium n-tetradecyl sulfate released ([3]; Day 15, 400 mg composition, 10% W/W): 25 µg/day | Amount of sodium n-tetradecyl sulfate released ([3]; Day 18, 400 mg composition, 10% W/W): 28 µg/day | Amount of sodium n-tetradecyl sulfate released ([3]; Day 27, 400 mg composition, 10% W/W): 10 µg/day | Amount of sodium n-tetradecyl sulfate released ([3]; Day 42.5, 400 mg composition, 10% W/W): 7.6 µg/day | Amount of sodium n-tetradecyl sulfate released ([3]; Day 50.5, 400 mg composition, 10% W/W): 10.5 µg/day | Amount of sodium n-tetradecyl sulfate released ([3]; Day 57.5, 400 mg composition, 10% W/W): 12.0 µg/day | Amount of sodium n-tetradecyl sulfate released ([3]; Day 64.5, 400 mg composition, 10% W/W): 8.6 µg/day | Amount of sodium n-tetradecyl sulfate released ([3]; Day 72.5, 400 mg composition, 10% W/W): 8.3 µg/day | Amount of sodium n-tetradecyl sulfate released ([3]; Day 76, 400 mg composition, 10% W/W): 5.6 µg/day | Amount of sodium n-tetradecyl sulfate released ([3]; Day 83, 400 mg composition, 10% W/W): 5.1 µg/day | Amount of sodium n-tetradecyl sulfate released ([3]; Day 90, 400 mg composition, 10% W/W): 5.0 µg/day | Release rate from dimethylpolysiloxane, in vitro (Calc. on basis of acrosin inhibition) ([3]; rod used in Table 6): 1 to 3 mg/day | LD50 [4]: 342 mg/kg
